Experimental findings from patent US20130310347A1, “MULTI-MODALITY MOLECULAR IMAGING HIGH-THROUGHPUT ASSAY FOR IDENTIFYING HEAT SHOCK PROTEIN 90 (HSP90) INHIBITORS” (The Board of Trustees of the Leland Stanford Junior …, priority 2012, published 2013) are described below.

Assay [1] has as its system Hsp90 client proteins (Raf-1, total and phosphorylated Akt). As to the kind of experiment: Western blotting of Hsp90 client proteins in 293T cells. The format is cell-based, human. Particulars: 2 μM, 24 h, positive control. As for the experimental part: FIG. 5A is a digital image of a western blot analysis illustrating the effect of lead compounds on the expression of Hsp90 client proteins. 293T cells stably expressing Hsp90(α/β)/p23 split reporters were treated with carrier control or compounds CP1, CP9, or CP18 (5 μM each) for 24 h. The known Hsp90 inhibitor PU-H71 (2 μM) was used as a positive control. The expression of Hsp90 client proteins (Raf-1, total and phosphorylated Akt) was determined by western blotting. α-Tubulin was used as a loading control.
Cells treated with PU-H71 (2 μM) served as a positive control.
Cells treated with 2 μM of PU-H71 served as a positive control. Western blotting of Hsp70, phosphorylated and total Akt and co-immunoprecipitation of Hsp90(α/β)/p23 interactions was performed as described Inglese et al., (2006) Proc. Nat. Acad. Sci. U.S.A. 103: 11473-11478, incorporated herein by reference in its entirety. The expression of Raf-1 was determined using rabbit polyclonal antibodies against Raf-1 (0.5 μg/ml, Abcam).
Background: In western blotting, separated proteins are transferred to a membrane and probed.

In assay [2] the test system is DOX-resistant V79/ADR lung cancer cells. The assay is described as follows: Sensitivity to DOX, Alamar Blue assay. The format is cell-based. The following applies: DOX 0.31-10 μM with inhibitor (CP9 8 μM), 24 h. The protocol:
FIGS. 13A-13C illustrate the inhibition of cell proliferation of DOX-resistant V79/ADR lung cancer cells by CP9 and the Hsp90 inhibitor PU-H71 in cell culture. V79 lung cancer cells and […] cells that are resistant to DOX were treated with DOX (0.31-10 μM) in the presence or absence of CP9 (8 μM) for 24 h before determination of cell number by an Alamar Blue assay.
Both Hsp90 isoforms (α and β) are expressed in cancer cells, but Hsp90β is constitutively expressed, whereas the expression of Hsp90α is highly inducible during stress and drug treatment. Using the genetically encoded split Renilla reporter system according to the disclosure, it was possible to decipher the individual contributions of each isoform in determining the sensitivity of Hsp90 inhibitors. It was reported that the transcription of MDR1 is regulated by HSF-1, which in turn is regulated by Hsp90α (Trepel et al., (2010) Nat. Rev. Cancer 10: 537-549). To determine the biological significance of CP9 selectivity in inhibiting Hsp90α/p23 interactions, V79 lung cancer cells and V79/ADR cells that overexpress multidrug-resistant protein and are insensitive to growth inhibition by doxorubicin (DOX) were used. V79 and V79/ADR cells were treated with DOX alone or in the presence of CP9. On the other hand, the addition of CP9 sensitized V79/ADR cells to DOX, as shown by the decrease in cell proliferation relative to treatment with DOX alone, as shown in FIG. 13B. […] The results also are consistent with the observation that derivatives of Hsp90 inhibitor peptides sensitize cancer cells with overexpression of MDR to epirubicin (a class of anthracyclines that includes DOX) (Molnar et al., (2007) In Vivo 21: 429-433).
In general terms: The colour change of resazurin is a common sign of viable cells or microbes.

Take `CC(C)NCCCn1c(Sc2cc3c(cc2I)OCO3)nc2c(N)ncnc21` [PU-H71, reference compound]: in assay [1], the “levels of Hsp90 client proteins (pAkt/total Akt, Raf-1)” value is “decreased levels of Raf-1, pAkt and total Akt”. In addition, the “sensitivity of drug-resistant V79/ADR cells to DOX” value in assay [2] is recorded as “restored the sensitivity”.
